Reference: patent publication US20160251403A1, “PEPTIDE COMBINATIONS AND USES THEREOF IN TREATING DUST MITE ALLERGY” (ALK-ABELLO A/S, priority 2013, published 2016)
No end group written: not given here.

How the values were obtained:
DRB1_0701 = DRB1_0701 (Homo sapiens, UniProt P01903+P01911, A100R/A102G/A103Q/D57E/D86V/E43K/F76Y/K127E/L162R/M171V/P40G/Q125H/Q99D/R33Q/R42Y/R54Q/S133A/S66F/T210M/V115G/Y107V/Y59L/Y89S); experiment: Competitive MHC class II binding assay, DRB1_0701;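 note: displacement of a radiolabeled reference peptide from purified HLA class II protein, with complex-bound radioactivity counted after 2–4 days of incubation and six concentrations spanning a 100,000-fold range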
DRB1_0901 = DRB1_0901 (Homo sapiens, UniProt P01903+P01911, A100R/A103E/D57H/D86V/F55Y/F60I/F76Y/I96F/K127E/L162R/M171V/P40D/Q125H/Q99R/R33Q/R42F/S133A/S66N/T210M/V115G/W38K/Y107V/Y59G/Y89S); experiment: Competitive MHC class II binding assay, DRB1_0901;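 note: displacement of a radiolabeled probe peptide from purified HLA class II protein, bound counts read after two to four days incubation, six concentrations spanning 100,000-fold, unlabeled probe as reference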
DRB1_1302 = DRB1_1302 (Homo sapiens, UniProt P01903+P01911, A100E/A169T/K41T/L162R/M171V/P40S/Q125H/Q178H/Q39Y/Q99D/R42S/S66N/T262R/V115G/W38E/Y61H); experiment: Competitive MHC class II binding assay, DRB1_1302;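 note: purified HLA class II protein incubated two to four days with a radiolabeled reference binder and test peptide at six concentrations over a 100,000-fold range, complex-bound radioactivity counted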
DPA10103-DPB10201 = biological target: T1, DPA10103-DPB10201 (Homo sapiens, UniProt P04440+P20036, A65V/A84D/A85E/K98E); experiment: Competitive MHC class II binding assay, DPA10103-DPB10201
T1 sequence (P20036 29-260): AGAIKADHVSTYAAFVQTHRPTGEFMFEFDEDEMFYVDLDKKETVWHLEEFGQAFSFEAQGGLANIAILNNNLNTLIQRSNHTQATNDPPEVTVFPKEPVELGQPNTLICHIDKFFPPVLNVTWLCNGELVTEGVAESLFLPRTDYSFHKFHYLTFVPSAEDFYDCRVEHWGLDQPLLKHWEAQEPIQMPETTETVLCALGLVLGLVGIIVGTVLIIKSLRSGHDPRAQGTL
T1 sequence (P04440 30-258 A65V/A84D/A85E/K98E): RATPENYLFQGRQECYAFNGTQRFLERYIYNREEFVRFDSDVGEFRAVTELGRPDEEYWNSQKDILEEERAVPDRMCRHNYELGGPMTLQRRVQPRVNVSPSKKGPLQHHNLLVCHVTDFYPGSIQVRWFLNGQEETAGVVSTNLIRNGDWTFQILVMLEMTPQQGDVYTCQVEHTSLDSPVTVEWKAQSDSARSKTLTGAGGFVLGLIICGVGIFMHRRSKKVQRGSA

DPA10103-DPB10301 = biological target: T2, DPA10103-DPB10301 (Homo sapiens, UniProt P04440+P20036, A65V/A84D/A85E/E86D/F38Y/G113D/G114E/G40L/I94L/L37V/M105V/M116V/P115A/R125K/T199I); experiment: Competitive MHC class II binding assay, DPA10103-DPB10301
T2 sequence (P20036 29-260): T1 sequence (P20036 29-260)
T2 sequence (P04440 30-258 L37V/F38Y/G40L/A65V/A84D/A85E/E86D/I94L/M105V/G113D/G114E/P115A/M116V/R125K/T199I/V234M): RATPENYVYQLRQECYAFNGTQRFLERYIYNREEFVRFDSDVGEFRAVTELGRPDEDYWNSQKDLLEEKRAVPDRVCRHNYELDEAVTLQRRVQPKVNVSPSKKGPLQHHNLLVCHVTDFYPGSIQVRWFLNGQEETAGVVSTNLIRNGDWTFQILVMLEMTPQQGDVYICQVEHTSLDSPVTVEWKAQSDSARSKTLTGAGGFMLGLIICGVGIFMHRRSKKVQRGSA

DRB3_0101 = DRB3_0101 (Homo sapiens, UniProt P01903+P79483); experiment: Competitive MHC class II binding assay, DRB3_0101
DRB4_0101 = DRB4_0101 (Homo sapiens, UniProt P01903+P13762, G164S); experiment: Competitive MHC class II binding assay, DRB4_0101
DQA10501-DQB10301 = DQA10501-DQB10301 (Homo sapiens, UniProt P01909+P01920); experiment: Competitive MHC class II binding assay, DQA10501-DQB10301
DQA10102-DQB10602 = experiment: Competitive MHC class II binding assay, DQA10102-DQB10602; conditions: read-out: HLA-DQA10102-DQB10602; positive binding at cutoff 1000 nM
DQA10101-DQB10501 = DQA10101-DQB10501 (Homo sapiens, UniProt P01909+P01920, A157S/A45G/A70V/C70R/D89V/E106S/E118A/E183D/E77G/F83G/G63E/H151Q/H199R/H252R/H253Q/I129T/I235V/I88M/INS77G/K197Q/L107V/L117V/L119Y/L178F/L71W/L74F/L85Q/L91A/L98M/M46L/N214S/P87R/Q116E/Q256R/Q57E/Q76K/R102G/R240Q/R75S/R78G/S102Y/S185I/S41F/S97I/T103A/T109R/T121G/T122I/T172A/T86R/V148I/V68A/V73E/Y34C/Y58G/Y62H); experiment: Competitive MHC class II binding assay, DQA10101-DQB10501; conditions: positive binding at cutoff 1000 nM; read-out: HLA-DQA10101-DQB10501
DRB1_0405 = DRB1_0405 (Homo sapiens, UniProt P01903+P01911, A100R/A169T/D86S/F76Y/I96L/K127E/L162R/M171V/N62H/P40V/Q125Y/R42H/S133A/S149N/S66Y/V115G/V209L/W38E); experiment: Competitive MHC class II binding assay, DRB1_0405
DRB1_1501 = DRB1_1501 (Homo sapiens, UniProt P01903+P01911); experiment: Competitive MHC class II binding assay, DRB1_1501
DQA10501-DQB10201 = DQA10501-DQB10201 (Homo sapiens, UniProt P01909+P01920, A45G/A70V/D89A/E106A/E77G/E98D/H199R/L107V/N214S/P84L/P87L/T103K/T109R/T172A/T60S/V78E/V99I/Y58L/Y62S/Y69I/Y79F); experiment: Competitive MHC class II binding assay, DQA10501-DQB10201

| Compound | IC50 (DRB1_0701) [nM] | IC50 (DRB1_0901) [nM] | IC50 (DRB1_1302) [nM] | IC50 (DPA10103-DPB10201) [nM] | IC50 (DPA10103-DPB10301) [nM] | IC50 (DRB3_0101) [nM] | IC50 (DRB4_0101) [nM] | IC50 (DQA10501-DQB10301) [nM] | IC50 (DQA10102-DQB10602) [nM] | IC50 (DQA10101-DQB10501) [nM] | IC50 (DRB1_0405) [nM] | IC50 (DRB1_1501) [nM] | IC50 (DQA10501-DQB10201) [nM] | binding to HLA Class II allele DRB1_1302 (DRB1_1302; as shown in Table 16a) | binding to HLA Class II allele DRB3_0101 (DRB3_0101; as shown in Table 16a) | binding to HLA Class II allele DQA10501-DQB10201 (DQA10501-DQB10201; as shown in Table 16a) |
| --- | --- | --- | --- | --- | --- | --- | --- | --- | --- | --- | --- | --- | --- | --- | --- | --- |
| LVKGQQYDIKYTWNVPKIAPK [pep-131] | < 1000 | < 1000 | < 1000 | < 1000 | < 1000 |  |  |  |  |  |  |  |  |  |  |  |
| HAVNIVGYSNAQGVDYWIVR [pep-058] | < 1000 | < 1000 | < 1000 |  | < 1000 | < 1000 | < 1000 | < 1000 | < 1000 | < 1000 | < 1000 | < 1000 | < 1000 |  |  |  |
| GSGSSWAFSGVAATESAYLA [pep-044] | < 1000 | < 1000 | < 1000 |  | < 1000 |  |  | < 1000 | < 1000 | < 1000 | < 1000 | < 1000 | < 1000 |  |  |  |
| CC[C@H](C)[C@H](NC(=O)CNC(=O)[C@@H](NC(=O)[C@@H](NC(=O)[C@@H](NC(=O)[C@H](C)NC(=O)[C@@H](NC(=O)[C@H](C)NC(=O)[C@H](CO)NC(=O)[C@H](Cc1c[nH]cn1)NC(=O)[C@@H](NC(=O)[C@H](CCC(N)=O)NC(=O)[C@H](C)NC(=O)[C@H](CC(C)C)NC(=O)[C@H](C)NC(=O)[C@H](CCC(=O)O)NC(=O)[C@@H](N)CCCNC(=N)N)[C@@H](C)O)[C@@H](C)CC)C(C)C)[C@@H](C)CC)[C@@H](C)CC)C(=O)N[C@@H](CCCCN)C(=O)N[C@@H](CC(=O)O)C(=O)N[C@@H](CC(C)C)C(=O)N[C@@H](CC(=O)O)C(=O)N[C@@H](C)C(=O)O [pep-130] | < 1000 | < 1000 | < 1000 | < 1000 | < 1000 |  | < 1000 | < 1000 | < 1000 | < 1000 | < 1000 |  | < 1000 |  |  |  |

Now from value to compound, other results behind:

| IC50 (DRB1_0701) [nM] | IC50 (DRB1_0901) [nM] | IC50 (DRB1_1302) [nM] | IC50 (DPA10103-DPB10201) [nM] | IC50 (DPA10103-DPB10301) [nM] | IC50 (DRB3_0101) [nM] | IC50 (DRB4_0101) [nM] | IC50 (DQA10501-DQB10301) [nM] | IC50 (DQA10102-DQB10602) [nM] | IC50 (DQA10101-DQB10501) [nM] | IC50 (DRB1_0405) [nM] | IC50 (DRB1_1501) [nM] | IC50 (DQA10501-DQB10201) [nM] | Compound | binding to HLA Class II allele DRB1_1302 (DRB1_1302; as shown in Table 16a) | binding to HLA Class II allele DRB3_0101 (DRB3_0101; as shown in Table 16a) | binding to HLA Class II allele DQA10501-DQB10201 (DQA10501-DQB10201; as shown in Table 16a) |
| --- | --- | --- | --- | --- | --- | --- | --- | --- | --- | --- | --- | --- | --- | --- | --- | --- |
|  | < 1000 | < 1000 |  |  | < 1000 | < 1000 | < 1000 | < 1000 |  |  |  |  | LVGDNGVLASAIATHAKIRD [pep-110] |  |  |  |
| < 1000 | < 1000 | < 1000 | < 1000 |  | < 1000 | < 1000 | < 1000 | < 1000 | < 1000 | < 1000 | < 1000 | < 1000 | DNGYGYFAANIDLMMIEE [pep-010] | binds to at least the same alleles as peptide 041 | binds to at least the same alleles as peptide 041 | binds to at least the same alleles as peptide 041 |
